Values quoted from earlier work as cited in US5663151A, “Sulfated α-glycolipid derivatives as cell adhesion inhibitors” (Bristol-Myers Squibb Company, priority 1995, dated 1997).

What was measured:
[1] = tested on: P-selectin; conditions: Larsen et al.; Erbe et al.; Aruffo et al.; cited from earlier work
[2] = tested on: P-selectin; conditions: cells grown in the presence of sodium selenate; cited from earlier work
[3] = tested on: P-selectin; conditions: Skinner et al.; cited from earlier work

Compound	P-selectin has been shown to bind [1]	further results
CC(=O)N[C@H]1C(O)O[C@H](CO)[C@@H](O[C@@H]2O[C@H](CO)[C@H](O)[C@H](O)[C@H]2O)[C@@H]1O[C@@H]1O[C@@H](C)[C@@H](O)[C@@H](O)[C@@H]1O (stereo partly shown) [Le^x]	shown to bind	–
O=[Se](=O)(O)O [sodium selenate]	–	binding of P-selectin to myeloid cell lines [2]: can be inhibited
heparin	–	inhibit P-selectin mediated adhesion [3]: inhibit P-selectin mediated adhesion
sialyl-Le^x	shown to bind	–
